Experimental data published in US20120142771A1, “BIPHENYLACETAMIDE DERIVATIVE” (Dainippon Sumitomo Pharma Co., Ltd., priority 2008, published 2012).

Assays:
[1] = tested on: subcutaneously pentetrazol-injected model (scPTZ); test: Subcutaneously pentetrazol-injected model (scPTZ) test; type: in vivo, mice; settings: pentetrazol 85 mg/kg s.c. after 1 hour
How it was run: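 Pentetrazol (85 mg/kg, s.c.) was injected one hour after oral test compound at 50 or 100 mg/kg in groups of three male Slc:ddY mice weighing 20-30 g; vehicle controls got 0.5% tragacanth or 0.5% methylcellulose.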

[2] = tested on: 6 Hz psychomotor seizure model; test: 6 Hz psychomotor seizure model; type: in vivo, mice; settings: mice
How it was run: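 Anticonvulsant activity was tested in the 6 Hz psychomotor seizure model in mice, a model reflecting seizures resistant to current antiepileptic drugs. 30 minutes or an hour after dosing, corneal electrical stimulation (6 Hz, 32 mA, 3 seconds) was applied to provoke forelimb myoclonus, Straub tail and immobility. Control mice received 0.5% tragacanth solution, 0.5% methylcellulose solution or olive oil.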

Slc: C57BL/6J male mice = test: Evaluation of antimanic effect (methamphetamine and chlordiazepoxide induced hyperactivity, locomotor distance); type: in vivo; settings: methamphetamine 4 mg/kg and chlordiazepoxide 10 mg/kg i.p.
Description: (§1) Meanwhile, there are no reports about animal models which provide a good clinical prediction to evaluate the improving efficacy for bipolar disorder. However, bipolar disorder comprises “manic state” and “depressive state”, and some animals are reported to be useful as a model to evaluate the improvement of each pathological condition individually. In general, an index of manic state is excessive hyperactivity induced by administering methamphetamine and chlordiazepoxide in combination, and that of depressive state is immobility induced by forced swimming.
Test 7: Evaluation of Antimanic Effect
Test 7 evaluates the antimanic effect of medicaments. The evaluation system is a test system whose utility has been already confirmed with a known antimanic agent which is clinically used as a mood-stabilizing drug, not as a drug for treating schizophrenia (Arban et al., Behay. Brain Res., 158:123-132, 2005, Foreman et al., Pharmacol. Biochem. Behay., 89: 523-534, 2008). Test compounds were orally administered to Slc: C57BL/6J male mice (8 mice in each group, body weight 20-26 g). After 30 minutes of administration, methamphetamine (4 mg/kg) and chlordiazepoxide (10 mg/kg) were administered intraperitoneally. Then, the mice were allowed to move freely in an acrylic cage (W 360 mm×D 230 mm×H 310 mm) for 90 minutes. The locomotor distances of the mice were measured with Ethovision software (Ver. 3.1). Among the 90 minutes, the result of the latter 60 minutes with the exception of the first 30 minute's result for adaptation to the new environment was used as data of the locomotor distance. The antimanic effect was evaluated by calculating how long locomotor distance was shortened against the control. To the control mice, 0.5% methylcellulose solution was administered.

Crl: CD (SD) male rats = test: Evaluation of antidepressant effect (forced swimming, duration of immobility); type: in vivo
Description: as §1
Test 6: Evaluation of Antidepressant Effect
Test 6 is a typical test to evaluate the antidepressant activity of medicaments (Porsolt et al., Nature, 266: 730-732, 1977, Porsolt et al., Eur. J. Pharmacol., 47: 379-391, 1978). Crl: CD (SD) male rats (12 rats in each group, body weight 200-250 g) were forced to swim for 15 minutes in a water pool with 200 mm diameter. In the pool, water was filled up to a depth of 205 mm from the bottom of the pool, and thus the rats could not touch the bottom of the pool with their hind limbs. Fifteen minutes after the completion of the forced swimming, test compounds were orally administered to the rats. On the next day, the test compounds were administered to the rats at the same dose as the previous day, and the rats were put in the pool for 5 minutes at the same clock time as the previous day. […] The antidepressant effect was evaluated by calculating how long the duration of immobility was shortened against the control. To the control, 0.5% methylcellulose solution was administered.

[3] = tested on: maximum electroshock seizure (MES) model; test: Maximum electroshock seizure (MES) model test; type: in vivo, mice
How it was run: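 Tonic hind-limb extension was elicited by corneal electroshock (60 Hz, 25 mA, 0.2 s) 1 h after oral dosing. Test compounds were given at 50 or 100 mg/kg to groups of 3 male Slc: ddY mice (20-30 g), vehicle controls receiving 0.5% tragacanth or 0.5% methylcellulose solution.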

## NC(=O)Cc1ccccc1-c1ccccc1F [Example 1, 2-(2′-Fluorobiphenyl-2-yl)acetamide]
[1]; Mus musculus, po, 1 h, 50 mg/kg oral, Slc: ddY male mice, 3 per group, observed 30 minutes for clonic convulsion, read-out: scPTZ (positive number/tested number) (converted)
  responders at 50 mg/kg: 66.7%
[1]; Mus musculus, po, 1 h, 100 mg/kg oral, Slc: ddY male mice, 3 per group, observed 30 minutes for clonic convulsion, read-out: scPTZ (positive number/tested number) (converted)
  responders at 100 mg/kg: 66.7%
[1]; mice, oral 50 or 100 mg/kg
  anticonvulsant action in subcutaneously pentetrazol-injected model (scPTZ) test: anticonvulsant action was observed
[2]; Mus musculus, 6 Hz psychomotor seizure model, oral, read-out: ED50
  ED50: 56.2 mg/kg
[2]; oral administration at a dose of 100 mg/kg
  efficacy in 6 Hz psychomotor seizure model: potent efficacy
[2]; oral, dose 100 mg/kg, 30 minutes or 1 hour after administration
  6 Hz (Positive number/tested number): 10/10/100
Slc: C57BL/6J male mice; 30 mg/kg oral
  The rate of the shortened locomotor-distance (% control): 24.1 % control
Slc: C57BL/6J male mice; 60 mg/kg oral
  The rate of the shortened locomotor-distance (% control): 43.8 % control
Slc: C57BL/6J male mice; 100 mg/kg oral
  The rate of the shortened locomotor-distance (% control): 73.8 % control
Crl: CD (SD) male rats; 10 mg/kg oral
  The rate of the shortened duration of immobility (% control): 23.4 % control
Crl: CD (SD) male rats; 30 mg/kg oral
  The rate of the shortened duration of immobility (% control): 24.9 % control
[3]; Mus musculus, po, 1 h, 50 mg/kg oral, Slc: ddY male mice, 3 per group, electrical stimulation 1 hour after administration, inhibition of hind limb extension, read-out: MES (positive number/tested number) (converted)
  responders at 50 mg/kg: 100%
[3]; Mus musculus, po, 1 h, 100 mg/kg oral, Slc: ddY male mice, 3 per group, electrical stimulation 1 hour after administration, inhibition of hind limb extension, read-out: MES (positive number/tested number) (converted)
  responders at 100 mg/kg: 100%
[3]; mice, oral 50 or 100 mg/kg, 1 hour after administration
  anticonvulsant action in maximum electroshock seizure (MES) model test: anticonvulsant action was observed
